{"source": "patent US6355481B1", "about": "“Hybridoma cell line and monoclonal antibody for huntingtin protein” (Emory University, priority 1999, dated 2002)", "key": {"[1]": {"test_system": "150Q cells", "experiment": "Cell viability (MTS) assay, 150Q cells", "type": "cell-based, rat", "protocol": "Cell viability and apoptosis assays. […] PC12 cells were plated in 96-well plates at a density of 10,000 cells/well and maintained 16-24 hr in complete medium. […] Leptomycin B (LMB; 10 nM) [provided by Dr. Minoru Yoshida (Kudo et al. (1997) J. Biol. […] After drug treatment, 20 μl of MTS reagent (2.1 mg/ml) was added to each well. The cells were then incubated for 30-45 min at 37° C. in a 5% CO2 incubator. The reaction was stopped by adding 25 μl of 10% SDS. The plates were read with a microplate reader (SPECTRAmax Plus; Molecular Devices, Palo Alto, Calif.) at 490 nm. Each data point was obtained using a triplet-well assay."}, "[2]": {"test_system": "150Q cells", "experiment": "EM48 immunofluorescence and Hoechst staining after LMB, 150Q cells", "type": "cell-based, rat", "conditions": "LMB 10 nM", "protocol": "(§1) Immunofluorescent labeling of cultured cells. Transfected cells grown in chamber slides were fixed in 4% paraformaldehyde in PBS for 15 min, permeabilized with 0.4% Triton X-100 in PBS for 30 min, blocked with 5% normal goat serum (NGS) in PBS for 1 hr, and incubated with primary antibodies in 2% NGS and PBS overnight at 4° C. After several washes, the cells were incubated with secondary antibodies conjugated with either FITC or rhodamine (Jackson ImmunoResearch, West Grove, Pa.). Hoechst dye (1 μg/ml) was used to label the nuclei. A Zeiss fluorescent microscope (Axioskop 2) and video system (Dage-MTI, Michigan City, Ind.) were used to capture images. The captured images were stored and processed using Adobe Photoshop software. Cell viability and apoptosis assays. […] PC12 cells were plated in 96-well plates at a density of 10,000 cells/well and maintained 16-24 hr in complete medium. […] Leptomycin B (LMB; 10 nM) [provided by Dr. Minoru Yoshida (Kudo et al. (1997) J. Biol. Chem. 272:29742-29751)] was added to the medium for 12-16 hr. After drug treatment, 20 μl of MTS reagent (2.1 mg/ml) was added to each well. The cells were then incubated for 30-45 min at 37° C. in a 5% CO2 incubator. The reaction was stopped by adding 25 μl of 10% SDS. The plates were read with a microplate reader (SPECTRAmax Plus; Molecular Devices, Palo Alto, Calif.) at 490 nm. […]"}, "[3]": {"test_system": "20Q cells", "experiment": "EM48 immunofluorescence and Hoechst staining after LMB, 20Q cells", "type": "cell-based, rat", "conditions": "LMB 10 nM", "protocol": "as §1"}, "[4]": {"test_system": "parental PC12 cells", "experiment": "Neurite outgrowth assay, parental PC12 cells", "type": "cell-based, rat", "conditions": "for neurite outgrowth promoted by growth factor: control/parental PC12 cells, IL-6 20 ng/ml, CNTF 20 ng/ml, EGF 10 ng/ml, bFGF 20 ng/ml", "protocol": "To evaluate neurite outgrowth, we plated the cells at low density (2×10^4 Cells/cm^2) onto six-well plates. Cell cultures were treated with NGF (100 ng/ml) for 48 hr or with staurosporine (50-100 nM) and EGF (10 ng/ml) for 16 hr and were fixed with 4% paraformaldehyde in PBS for 15 min. After several washes with PBS, cells with neurites exceeding the cell diameter were counted using an inverted microscope (Olympus Optical CK2, Tokyo, Japan). At the same time, five to seven images (10×) were captured by a Pixera camera, and the percentage of cells with neurites was confirmed by analyzing these images. On average, 500-800 cells were counted for each group."}, "[5]": {"test_system": "PC12 cells expressing the 20Q HD exon-1 protein (20Q cells)", "experiment": "Neurite outgrowth assay, 20Q cells", "type": "cell-based, rat", "conditions": "IL-6 20 ng/ml", "description": "(§2) Huntingtin constructs, transfection, and selection of stably transfected cell lines. A partial huntingtin CDNA containing 20 (20Q) or 150 CAG repeats was isolated from a lambda phage DNA that contains exon-1 of the human HD gene [provided by Dr. Gillian Bates (Mangiarini et al. (1996) Cell 87:493-506)]. The N-terminal huntingtin fragments encoded by these cDNAs were expressed using the pCIS expression vector that carries a cytomegalovirus promoter (Li et al. (1998) Hum. Molec. Genet. 7:777-782). The pCDNA3 vector, which carries the G418 resistance gene (Invitrogen, San Diego, Calif.), was cotransfected with the pCIS-huntingtin constructs. Subconfluent PC12 cells in 80 mm dishes were transfected with 7 μg of plasmid DNA and 10 μg/ml lipofectAMINE (Life Technologies) per dish. The transfected cells were then selected in the presence of 500 μg/ml G418 in DM EM plus 5% fetal bovine serum and 10% horse serum. Selected G418-resistant cells were subcloned and maintained in the same conditioned medium until each cell line contained homogenous transfected cells. […]\n(§3) To evaluate neurite outgrowth, we plated the cells at low density (2×10^4 Cells/cm^2) onto six-well plates. […] After several washes with PBS, cells with neurites exceeding the cell diameter were counted using an inverted microscope (Olympus Optical CK2, Tokyo, Japan). […] On average, 500-800 cells were counted for each group."}, "[6]": {"test_system": "PC12 cells expressing the 150Q mutant HD exon-1 protein (150Q cells)", "experiment": "Neurite outgrowth assay, 150Q cells", "type": "cell-based, rat", "description": "as §2, §3"}, "[7]": {"test_system": "parental PC12 cells", "experiment": "Trypan blue exclusion cell death assay, parental PC12 cells", "type": "cell-based, rat", "conditions": "100 nm staurosporine", "protocol": "(§4) Cell death rate and neurite outgrowth assays. Cells were plated at a standard density (4×10^4/cm^2) in six-well plates with DMEM supplemented with 5% FBS and 10% horse serum. Cultured cells were harvested, centrifuged at 1000 rpm for 5 min, and resuspended in PBS containing 0.4% trypan blue. The cells were incubated in the trypan blue solution for 10 min and transferred to a hemocytometer, and the number of viable (phase bright) and nonviable (blue) cells was recorded. For each sample, cell counts in four corner fields of the hemocytometer were averaged."}, "[8]": {"test_system": "150Q cells", "experiment": "Trypan blue exclusion cell death assay, 150Q cells", "type": "cell-based, rat", "protocol": "as §4"}, "[9]": {"test_system": "20Q cells", "experiment": "Cell viability (MTS) assay, 20Q cells", "type": "cell-based, rat", "conditions": "20Q cells vs parental PC12 cells, >250 nM staurosporine", "experimental": "Cell viability was determined by a modified 3-(4,5-dimethylthiazol-2-yl)-2,5-diphenyltetrazohum bromide (MTS) assay (Cell Titer 96; Promega), which is based on the conversion of tetrazolium salt 3-(4,5-dimethylthiazol-2-yl)-5-(3-carboxymethoxyphenyl)-2-(4-sulfophenyl) 2-H-tetrazolium by mitochondrial dehydrogenase to a formazan product, as measured at an absorbance of 490 nm. PC12 cells were plated in 96-well plates at a density of 10,000 cells/well and maintained 16-24 hr in complete medium. Cells were then changed to medium containing 1% FBS in the absence or presence of staurosporine at different concentrations. Staurosporine was dissolved in 2 mM dimethylsulfoxide (DMSO) and diluted in the medium at various concentrations. […] After drug treatment, 20 μl of MTS reagent (2.1 mg/ml) was added to each well. The cells were then incubated for 30-45 min at 37° C. in a 5% CO2 incubator. The reaction was stopped by adding 25 μl of 10% SDS. The plates were read with a microplate reader (SPECTRAmax Plus; Molecular Devices, Palo Alto, Calif.) at 490 nm. Each data point was obtained using a triplet-well assay."}, "[10]": {"test_system": "parental PC12 cells", "conditions": "PC12 cells (Yao et al. 1997); cited from earlier work"}, "[11]": {"conditions": "150Q cells treated with EGF and staurosporine together"}}}
{"compound": "CCC(=C/[C@H](C)C/C=C/C(C)=C/[C@@H](C)C(=O)[C@@H](C)[C@H](O)[C@@H](C)C/C(C)=C/C(=O)O)/C=C/[C@@H]1OC(=O)C=C[C@@H]1C", "note": "[LMB, Leptomycin B]", "values": [{"measurement": "cell viability after exposure to LMB", "setting": "[1]; 150Q cells vs control cells, LMB 10 nM", "value": "more 150Q cells than control cells were dying"}, {"measurement": "DNA fragmentation after LMB", "setting": "[2]", "value": "more 150Q cells showed DNA fragmentation"}, {"measurement": "intranuclear EM48 labeling after LMB", "setting": "[2]; vs without LMB", "value": "more 150Q cells had intense intranuclear EM48 labeling"}, {"measurement": "DNA fragmentation after LMB", "setting": "[3]", "value": "very few LMB-treated 20Q cells had DNA fragmentation"}, {"measurement": "nuclear labeling after LMB", "setting": "[3]", "value": "increased the nuclear labeling of some 20Q cells"}]}
{"compound": "IL-6: interleukin-6", "values": [{"measurement": "neurite outgrowth promoted by growth factor", "setting": "[4]", "value": "promoted neurite outgrowth"}, {"measurement": "neurite outgrowth promoted by growth factor", "setting": "[5]", "value": "promoted neurite outgrowth"}]}
{"compound": "CN[C@@H]1C[C@H]2O[C@@](C)([C@@H]1OC)n1c3ccccc3c3c4c(c5c6ccccc6n2c5c31)C(=O)NC4", "note": "[staurosporine]", "values": [{"measurement": "neurite outgrowth with staurosporine", "setting": "[4]; parental PC12 cells, 100 nm staurosporine", "value": "grew neurites"}, {"measurement": "neurite outgrowth with staurosporine", "setting": "[6]; 150Q cells, 100 nm staurosporine, living cells", "value": "some of the living 150Q cells displayed neurite outgrowth"}, {"measurement": "cell death with staurosporine", "setting": "[7]", "value": "without displaying significant cell death"}, {"measurement": "cell death with staurosporine", "setting": "[8]; 150Q cells, 100 nm staurosporine", "value": "killed a significant number of 150Q cells"}, {"measurement": "susceptibility to staurosporine (cell viability)", "setting": "[1]; 150Q cells vs 20Q or parental PC12 cells, 10-125 nM staurosporine", "value": "more susceptible"}, {"measurement": "cell killing by higher doses of staurosporine", "setting": "[9]", "value": "killed more 20Q cells than parental PC12 cells"}, {"measurement": "time to initiation of neurite outgrowth", "setting": "[10]", "value": "4 to 6", "unit": "h"}]}
{"compound": "EGF: epidermal growth factor (NSDSECPLSHDGYCLHDGVCMYIEALDKYACNCVVGYIGERCQYRDLKWWELR; Epidermal growth factor; UniProt P01133 971-1023, looked up)", "values": [{"measurement": "neurite outgrowth promoted by growth factor", "setting": "[4]", "value": "very weak effect"}, {"measurement": "effect of EGF on neurite outgrowth", "setting": "[6]; [11]", "value": "significantly enhanced neurite outgrowth"}, {"measurement": "effect of EGF on cell death", "setting": "[8]; [11]", "value": "reduced cell death"}, {"measurement": "effect of EGF on cell viability", "setting": "[1]; 150Q cells, EGF 10 ng/ml in the presence of 10-100 nM staurosporine", "value": "significantly increased cell viability"}]}
